Results published in patent US6579853B2, “Brain cell or nerve cell-protective agents comprising ginsenoside Rb1” (Japan Science and Technology Corporation, priority 1998, dated 2003).

Key:
[1] = in vivo
nerve cells [2] = details: cited from earlier work
neuronal cells = details: 0.11-11 μg/ml; cited from earlier work
[3] = test system: gerbils loaded with 3 minute forebrain ischemia; assay: TUNEL staining of hippocampal CA1 field after 3 minute forebrain ischemia, intracerebroventricular administration; format: in vivo, gerbil; details: i.c.v. 2.5 or 25 ng single, then 60 or 600 ng/day for 1 week; 1 week after ischemia
Procedure: In order to analyze a suppressive effect of ginsenoside Rb1 on intracerebral apoptosis-like neuron death, the present inventors examined whether actually occurring pathological apoptosis-like neuron death in the mature brain can be reduced by administration of ginsenoside Rb1 or not. The three minute forebrain ischemia model of gerbils was used as model animal. It was reported that at one week after 3 minute ischemia, about one half of hippocampal CA1 pyramidal neurons degenerated (Sakanaka M., et al., Proc. Natl. Acad. Sci. USA, 95, 4635-4640, 1998). […] With this model animal, it was examined with TUNEL staining whether apoptosis-like neuron death on the 7th day after 3 minute ischemia could be suppressed by intracerebroventricular administration of ginsenoside Rb1 or not.
Immediately after 3 minute forebrain ischemia in gerbils under inhalation anesthesia, a single intracerebroventricular administration of ginsenoside Rb1 at the dose of 2.5 ng or 25 ng was performed, and subsequently ginsenoside Rb1 (60 ng/day or 600 ng/day) was continuously infused into the cerebral ventricles through an osmotic minipump for 1 week. At one week after 3 minute forebrain ischemia, the gerbils were perfused and fixed transcardially with phosphate buffer containing 4% paraformaldehyde under pentobarbital anesthesia and the brain was dissected out. […]

[4] = test system: SH-SP rats with MCA permanent occlusion; assay: Ratio of cerebrocortical infarction after MCA permanent occlusion, intravenous infusion; format: in vivo, rat
Procedure: (§1) First, we examined the actions of intravenous infusion of ginsenoside Rb1. For this purpose, for example, male SH-SP rats weighing 250˜300 g at the age of 12-13 weeks were used. The animals were bred in an air-conditioned room with a 12:12 hour light-dark cycle, and water and feeds were supplied ad libitum. The cortical branch of the left middle cerebral artery (MCA) was coagulated and cut. A single intravenous administration of ginsenoside Rb1 dissolved in physiological saline was conducted immediately after MCA permanent occlusion (6 μg or 60 μg), thereafter continuous intravenous administration of ginsenoside Rb1 was performed for 28 days by using an Alza mini osmotic pump (6 μg/day or 60 μg/day).
After the water maze tests at the 4th week, the SH-SP rats were anesthetized with chloral hydrate, and they were perfused and fixed transcardially with 0.1 mole phosphate buffer containing 4% paraformaldehyde. The brains were dissected out and cerebrocortical infarcted areas were photographed. Areas of the left cerebral hemisphere and the left cerebrocortical infarct lesions were measured on the photographs by using an image analysis device. The left cerebrocortical infarcted areas were divided by the left cerebral hemispheric areas to calculate ratios of the cerebrocortical infarction (%).
Male SH-SP rats at the age of 12-13 weeks, weighing 250-300 g, were used. The animals were bred in a room furnished with 12 hours light and dark cycles and water and feeds were supplied ad libitum. Blood pressure of the animals was 203±6.9 mmHg. The following experiments were conducted in accordance with the Guide for Animal Experimentation at Ehime University School of Medicine. […]
After termination of the water maze tests at the 4th week, the SH-SP rats were anesthetized with chloral hydrate, and they were perfused and fixed transcardially with 0.1 mole phosphate buffer containing 4% paraformaldehyde. […] Areas of the left cerebral hemisphere and the left cerebrocortical infarct lesions were measured on the photographs by using an image analysis device. […]

[5] = in vivo; cited from earlier work
[6] = test system: SH-SP rats with permanent occlusion of the MCA; details: cited from earlier work
[7] = intracerebroventricular administration; cited from earlier work
[8] = test system: transient forebrain ischemia model of gerbils; details: cited from earlier work
brain = details: intraperitoneal administration; cited from earlier work
[9] = test system: SH-SP rats with MCA permanent occlusion; assay: Water maze test (place navigation ability) after MCA permanent occlusion, intravenous infusion; format: in vivo, rat
Procedure: as §1
After MCA permanent occlusion, according to the conventional method (Zhang B. et al., J. Stroke Cerebrovasc. Dis., 7, 1-9, 1998), water maze tests were performed for 4 days at the 2nd week and the 4th week, respectively, and the place navigation abilities of SH-SP rats were determined.
Male SH-SP rats at the age of 12-13 weeks, weighing 250-300 g, were used. The animals were bred in a room furnished with 12 hours light and dark cycles and water and feeds were supplied ad libitum. Blood pressure of the animals was 203±6.9 mmHg. The following experiments were conducted in accordance with the Guide for Animal Experimentation at Ehime University School of Medicine. The cortical branch of the left middle cerebral artery (MCA) of SH-SP rats, were coagulated and cut, while their rectal temperature was maintained at 37±0.2° C. under inhalation anesthesia.
Immediately after MCA permanent occlusion, 60 μl of physiological saline containing ginsenoside Rb1 at a concentration of 1 μg/μl or 0.1 μg/μl was injected once into the left femoral vein. […]
After the MCA permanent occlusion according to the conventional method (Zhang B. et al., J. Stroke Cerebrovase. Dis., 7, 1-9, 1998), water maze tests were performed for 4 days at the 2nd week and the 4th week, respectively, and place navigation abilities of SH-SP rats were determined. […]

[10] = test system: cerebrocortical nerve cells (neurons) from rats at embryonic age 17
Procedure: After maintaining cerebrocortical nerve cells (neurons) from rats at embryonic age 17 in a serum-free culture medium for 4 or 5 days, the medium was replaced with a fresh medium containing or not containing ginsenoside Rb1 and the neurons were incubated for 24 hours. Then, SNP at the concentration of 100 μM was added to the medium for 10 minutes, and the nerve cells (neurons) were maintained in a medium containing ginsenoside Rb1 for 16 hours. Survival rate of the nerve cells was measured by using a redox indicator, alamar blue.
In the present experiments, ginsenoside Rb1 was added before and after SNP loading or only after SNP loading, and its effects were measured.
After maintaining cerebrocortical nerve cells (neurons) from rats at embryonic age 17 in a serum-free culture medium for 4 or 5 days, the medium was replaced with a fresh medium containing ginsenoside Rb1 at the concentrations of 1 fg/ml, 100 fg/ml and 100 pg/ml or no ginsenoside Rb1 (0 fg/ml), and the neurons were incubated for 24 hours. Thereafter a nitric oxide (NO) donor, sodium nitroprusside (SNP) at a concentration of 100 μM, was added to the medium for 10 minutes. Then the nerve cells (neurons) were maintained in a medium containing ginsenoside Rb1 for 16 hours. Survival rate of the nerve cells was measured by using a redox indicator, alamar blue.
Data are represented as a mean±SE. […]

cultured nerve cells = details: cited from earlier work
[11] = test system: gerbils with occlusion of the common carotid arteries; details: i.c.v. infusion starting immediately after 3 or 3.5 minute occlusion; cited from earlier work
Bcl-xL mRNA = Bcl-xL mRNA expression in cultured nerve cells (RT-PCR); format: cell-based, rat; details: 1 fg/ml or 100 fg/ml, 24 hours; compared with control (0 fg/ml)
Procedure: It was investigated whether ginsenoside Rb1 of the present invention can increase the expression of Bcl-xL gene or not. Experimental techniques followed those by Wen et al. (Wen T. -C., et al., J. Exp. Med., 188, 635-649, 1998). Total RNA was extracted from cultured nerve cells treated for 24 hours with ginsenoside Rb1 at the concentrations of 0 fg/ml, 1 fg/ml and 100 fg/ml. cDNA was prepared from DNase-treated total RNA (3 μg) by using oligo dT primer and reverse transcriptase (Moloney murine leukemia virus reverse transcriptase). Gene amplification reaction (polymerase chain reaction, PCR) was performed by using Taq polymerase under the following conditions: (1) 94° C., 2 minutes; (2) 94° C., 1.5 minute; 55° C., 1.5 minute; 72° C., 2 minutes constructed one cycle, and 25 cycles for Bcl-xL and 20 cycles for β-actin were performed; and (3) 72° C., 2 minutes.
PCR products were electrophoresed on 3% agarose gel and visualized by ethidium bromide staining. The expression of β-actin mRNA was used as an internal standard. […]

nerve cells [12] = details: approximately 500 μM (550 μg/ml); cited from earlier work
[13] = test system: cerebrocortical neurons from rats at embryonic age 17; assay: Peroxidation of neuronal membrane lipids by ferrous sulfate and ascorbic acid (TBA); format: cell-based, rat; details: 48 hours pretreatment
Procedure: Then the medium was changed to a fresh medium containing ferrous sulfate and ascorbic acid but not containing ginsenoside Rb1 and the neuronal culture was maintained for 2 hours to generate hydroxyl radicals for giving an oxidative injury to neuronal membrane. The generated neuronal membrane lipid peroxide was determined by photometrically measuring a fixed amount of thiobarbituric acid (TBA) after solubilizing the cells with sodium dodecyl sulfate.
Then the medium was changed to a fresh medium containing ferrous sulfate and ascorbic acid but no ginsenoside Rb1, and the neuronal culture was maintained for 2 hours to generate hydroxyl radicals for giving oxidative injury to neuronal membrane. The generated neuronal membrane lipid peroxide was photometrically determined by measuring the fixed amount of thiobarbituric acid (TBA) after solubilizing the cells with sodium dodecyl sulfate.

[14] = i.c.v. infusion starting immediately after permanent MCA occlusion

CC(C)=CCC[C@](C)(O[C@@H]1O[C@H](CO[C@@H]2O[C@H](CO)[C@@H](O)[C@H](O)[C@H]2O)[C@@H](O)[C@H](O)[C@H]1O)[C@H]1CC[C@]2(C)[C@@H]1[C@H](O)C[C@@H]1[C@@]3(C)CC[C@H](O[C@@H]4O[C@H](CO)[C@@H](O)[C@H](O)[C@H]4O[C@@H]4O[C@H](CO)[C@@H](O)[C@H](O)[C@H]4O)C(C)(C)[C@@H]3CC[C@]12C [ginsenoside Rb1]
adverse effect on administered animals [1]: No adverse effect | neurotoxicity at high concentrations (nerve cells [2]): increased neurotoxicity | glutamate-mediated neurotoxicity (neuronal cells): reduce glutamate-mediated neurotoxicity | TUNEL-positive nerve cells in hippocampal CA1 field [3]: significantly reduced in a dose-dependent manner | ratio of cerebrocortical infarction ([4]; i.v. 6 or 60 μg/day for 28 days, compared with physiological saline group): significantly reduced | actual volume of infarction reduced to (fraction of control) ([4]; i.v. administration, worked out from area ratio): about ¼ | mean ratio of cerebrocortical infarction compared with physiological saline group ([4]; i.v. ginsenoside Rb1 groups, reduced to): ≤ 50% | detection in blood after oral administration [5]: can not be detected | suppressive effect on cerebral infarction ([6]; continuous i.c.v. infusion 0.6 μg/day after MCA occlusion): significant suppressive effect | curative effect on cerebral infarction ([6]; continuous i.c.v. infusion 6 μg/day or 0.06 μg/day after MCA occlusion): no curative effect | infarcted area in the cerebral cortex [6, 14]: significant reduction | ischemia-induced place navigation disability [6, 14]: ameliorated | brain temperature, cerebral blood flow and blood pressure [7]: no effects | delayed neuronal death and learning disability caused by 5 minute occlusion ([8]; i.p. 10 or 20 mg/kg once a day for one week in advance): significantly prevent | hippocampal CA1 pyramidal neurons rescued ([8]; i.p. 10 or 20 mg/kg/day before ischemic loading): about 30% | effect of intraperitoneal administration after ischemia ([8]; i.p. immediately after 3- or 5-minute occlusion of the common carotid arteries): no effect | action on the brain (brain): tranquilizing action | learning disability in water maze tests, low dose ([9]; i.v. 6 μg/day, 3rd and 4th day at the 2nd and 4th week after MCA occlusion): significantly ameliorated | learning disability in water maze tests, high dose ([9]; i.v. 60 μg/day, 4th day at the 2nd week, 3rd and 4th days at the 4th week after MCA occlusion): significantly ameliorated | place navigation disability after MCA permanent occlusion (water maze) ([9]; intravenous infusion 6 or 60 μg/day for 28 days, compared with cerebral infarction group given physiological saline): significantly improved | apoptosis of nerve cells after SNP treatment ([10]; 1-100 fg/ml, added before and after SNP (100 μM, 10 minutes) or only after SNP): significantly suppressed | concentrations in extracellular fluid that suppress apoptosis of nerve cells ([10]; SNP-treated cultured neurons): 1 to 100 fg/mL | neurotoxicity of free radicals (cultured nerve cells; 0.1-100 fg/ml): reduce the neurotoxicity | neuronal necrosis caused by ferrous sulfate (cultured nerve cells; 1-100 fg/ml previously admixed in culture medium): reduces neuronal necrosis | delayed neuronal death and learning disability [11]: suppresses | expression of Bcl-xL mRNA (Bcl-xL mRNA): increased | apoptosis-like nerve cell death (nerve cells [12]): has a possibility to prevent | preventive effect on lipid peroxidation ([13]; 0.1-10 fg/ml): no preventive effects | preventive effect on peroxidation of nerve cell membrane lipid ([13]; 100 fg/ml): slightly confirmed
